Assay results from the METLIN SMRT retention time set (Domingo-Almenara et al. 2019).

Experiment: gradient 5% acetonitrile 3 min, to 50% in 2 min, to 85% in 15 min, held 3 min, 100 µL/min
Details: column: Zorbax Extend-C18 2.1 x 50 mm; eluents: water / acetonitrile, 0.1% formic acid
Procedure, shortened: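 Over 3 months, pure standards in mixtures of ~100 molecules were run by HPLC coupled to a quadrupole time-of-flight mass spectrometer in positive and negative ionization mode. The column was a Zorbax Extend-C18 (2.1 × 50 mm, 1.8 μm) at 100 μL/min, eluted with water and acetonitrile each holding 0.1% formic acid, with 40 μL dead and 900 μL dwell volumes. Retention time was determined from adduct peaks chosen by software and checked manually.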

Structure (SMILES) | RP-LC retention time [s]
CC(C)(C)NC(=O)N[C@H](C(=O)N1C[C@H]2[C@@H]([C@H]1C(=O)NC(CC1CCC1)C(=O)C(N)=O)C2(C)C)C(C)(C)C (some centres undefined) | 1020
CCOc1ccc(NC(=O)Cn2cnc3nc(N4CCCC(C(=O)NC5CC5)C4)sc3c2=O)cc1 (centres undefined) | 675
O=C1C=C(N2CCNCC2)C(=O)c2c(O)ccc(O)c21 | 600
COc1ccc2[nH]cc(CCNC(=O)c3cc4n(n3)CCCN(Cc3ccc(Cl)cc3)C4=O)c2c1 | 693
COc1ccc(-n2nnc(-c3nsc(Nc4ccc(OC)c(Cl)c4)n3)c2C)cc1 | 1010
CC(=O)C1=C(O)C(=O)N(C(C)c2ccccc2)C1c1ccccc1 (centres undefined) | 836
CCc1ccc(Nc2nc(C(=O)NCCCOC)nc3ccccc23)cc1 | 750
CCCCC(=O)Nc1ccc2nc(N3CCN(CCC#N)CC3)cc(C(=O)O)c2c1 | 570
CN1CC(=O)N(CC(=O)Nc2cccc(C#N)c2)c2ccccc2C1=O | 653
COc1cccc(NC(=O)C2CCN(S(C)(=O)=O)c3ccccc3O2)c1 (centres undefined) | 810
O=C(Cn1nc(C2CC2)cc1C(=O)N1CCCC1)Nc1ccccc1Cl | 815
CCn1c(=O)c(SCC(=O)NCCN(C)Cc2ccccc2)nc2ccccc21 | 641
CCc1cc(C2CCCN2C(=O)NCc2cccc(OC)c2)on1 (centres undefined) | 855
O=C1CC(c2noc(-c3ccc(F)cc3)n2)CN1c1ccc(F)cc1 (centres undefined) | 961
CCOC(=O)C(C)NC(=O)N1CCc2cc(-c3ccc(C(=O)N4CCOCC4)cc3)ccc21 (centres undefined) | 751
COc1cn(CC(=O)NCC2CCCO2)c(CN2CCC(C)CC2)cc1=O (centres undefined) | 570
O=C(NC1CCCCC1)c1ccc2c(c1)NC(=O)C1CCCCN21 (centres undefined) | 807
COC1CN(c2ccc(C)cc2)C12CCN(C(=O)C1(c3ccccc3)CC1)CC2 (centres undefined) | 1100
O=C(C1CCN(S(=O)(=O)c2ccc(-c3noc(C4CC4)n3)cc2)CC1)N1CCc2ccccc2C1 | 1050
O=C1C(N2CCCN(S(=O)(=O)c3cccc(Cl)c3)CC2)CCN1Cc1ccccc1 (centres undefined) | 718
Fc1ccc(Cn2cccc2-c2nc(-c3cccnc3)no2)cc1 | 1100
COC(=O)C(C)NC(=O)NCc1cccn1Cc1ccccc1C (centres undefined) | 821
COc1ccc(-c2cn3cccnc3n2)cc1NC(=O)c1ccccc1Br | 685

Structure (SMILES) | RP-LC retention time [s]
Cc1ccc(N2C(=O)C3N=NN(Cc4nc(-c5ccc(C)c(C)c5)no4)C3C2=O)cc1 (centres undefined) | 1110
CCc1noc(NC(C)=O)c1-c1ccc(C)c(S(=O)(=O)NCc2ccccc2)c1 | 836
CN(C)S(=O)(=O)NCc1nnnn1C1CCCCC1 | 681
CCn1ccc(C(=O)N2CCC(Cc3nc4cccnc4n3CC(C)C)C2)n1 (centres undefined) | 619
CCC1CCCCN1C(=O)c1cnc2nc(C)ccc2c1Nc1cccc(SC)c1 (centres undefined) | 713
O=c1c2nc(-c3ccc(Br)cc3)cn2ccn1-c1ccc(F)c(F)c1 | 924
Cn1nccc1-c1csc(S(=O)(=O)NC2CC2)c1 | 713
Nc1cc(C2CCN(C(=O)c3ccc4c(c3)OCO4)CC2)no1 | 651
CC(C)c1noc(-c2cccnc2N2CCCN(C(=O)NCc3ccccc3)CC2)n1 | 920
O=C(NCc1csc(C2CCCN(C(=O)c3cc(F)cc(F)c3)C2)n1)C1CCC1 (centres undefined) | 771
CCn1c(CN(c2ccc(F)cc2)S(C)(=O)=O)nnc1SCc1nnc(-c2ccccc2)o1 | 760
Cc1cc(C)n(-c2ccnc(N3CCC(C(=O)NCc4ccncc4)CC3)n2)n1 | 599
COc1ccc(-c2nc3nc(C)cc(C)n3c2Nc2ccccc2C)cc1 | 742
CCNC(=O)c1n[nH]c2c1CN(C(=O)c1ccc3c(c1)OCO3)CC2 | 634
O=C(NC1CCCCC1)C1CCN(C(=O)c2cc(-c3ccncc3)n[nH]2)CC1 | 590
COc1ccc(Cl)cc1NC(=O)C1Oc2ccccc2NC1=O (centres undefined) | 873
COC(=O)c1ccccc1NC(=O)c1cc(N2C(=O)CCS2(=O)=O)ccc1Cl | 840
COCCN1CC2(CCN(S(=O)(=O)c3ccc(F)cc3F)CC2)C1c1ccncc1 (centres undefined) | 623
CCc1ccc(Oc2cc(N3CCC(C(=O)NC4CCC(C)CC4)CC3)ncn2)cc1 (centres undefined) | 1120
CN1C(=O)c2cccnc2Sc2cc(NC(=O)c3ccccc3F)ccc21 | 758
O=C(CCCCCN1C(=O)c2cccc3cccc(c23)C1=O)NO | 694
CCOC(=O)c1csc(NC(=O)CCS(=O)(=O)c2ccc(OC)cc2)n1 | 700
O=c1n(CCOc2ccc(F)cc2)nc2ccc(S(=O)(=O)N3CCOCC3)cn12 | 811

Structure (SMILES) | RP-LC retention time [s]
CCCNC(=O)C1CCN(c2ccc(SCC(=O)Nc3ccc(Cl)cc3)nn2)CC1 | 655
CCn1c(C(=O)NCCCN2CCCC2=O)c(N2CCCC2=O)c2cc(F)ccc21 | 700
CCCN1C(=O)COc2ccc(-c3noc(-c4ccc(OCC)cc4)n3)cc21 | 1320
CCn1cc(CCNC(=O)c2ccc(OC)cc2)c2cccnc21 | 675
CNC(=O)c1n[nH]c2c1CCCCCC2 | 685
CCOc1ccccc1C1C(C#N)=C(N)Oc2cc(C)n(CCN(C)C)c(=O)c21 (centres undefined) | 597
Cc1ccc(NC(=O)C2CCN(S(C)(=O)=O)c3cc(Cl)ccc3O2)c(C)c1 (centres undefined) | 992
Cc1cccc(Cn2c(=O)n(CCNC(=O)c3cnccn3)c3ncccc32)c1 | 722
COc1ccc(CC(=O)NC2CCN(c3cc(-c4ccccc4)[nH]n3)C2)cc1OC (centres undefined) | 659
Cc1ccc(N2CCN(Cc3nc(-c4ccc(N5CCCCC5)nc4)no3)CC2)cc1 | 901
CC(C)(CO)NC(=O)Cc1ccc(NS(=O)(=O)c2ccccc2Br)cc1 | 664
CSc1ccc(NC(=O)N2CCC(c3nc(C(=O)N4CCOCC4)c(C)o3)CC2)cc1 | 726
CC(C)(C)C(=O)N1CCCC1c1nc2ccccc2s1 (centres undefined) | 932
O=C(NCc1ccccn1)C1c2ccccc2C(=O)N(Cc2ccccc2)C12CCCC2 (centres undefined) | 704
COc1ccc(-c2cc3nc(C)cc(N4CCN(c5ccccn5)CC4)n3n2)cc1OC | 583
COc1ccc(Nc2c(C(=O)N3CCC(C)CC3)cnc3nc(C)ccc23)cc1 | 638
Cc1ccc(CNC(=O)c2nnc(-c3ccc(S(=O)(=O)N4CCCCC4)cc3)o2)o1 | 952
O=C(NCc1ccc(S(=O)(=O)c2cc(F)cc(F)c2)cc1)c1ccc2nccn2c1 | 724
Cn1cnnc1C1CCCCN1C(=O)c1ccc2c(c1)OCO2 (centres undefined) | 618
Cc1cccc(Nc2c(-c3ccc(N4CCOCC4)cc3)nc3cnccn23)c1C | 867
Cc1ccc(NC(=O)Cn2ccc3sccc3c2=O)cc1Cl | 830
COc1ccc(Cn2nnc(C(=O)NCc3ccco3)c2-n2cccc2)cc1 | 925
O=C(Cn1cccc(-c2nc(-c3ccc(F)cc3)no2)c1=O)Nc1ccc2c(c1)OCCO2 | 832

Structure (SMILES) | RP-LC retention time [s]
Cc1cccc(CNC(=O)C2CCN(S(=O)(=O)c3cc(C(=O)N4CCOCC4)cs3)CC2)c1 | 763
Cc1nc2cc(N3CC(C(=O)Nc4ccccc4)CC3=O)ccc2o1 (centres undefined) | 703
Cc1ccc(NC(=O)Cn2cnc3c(c2=O)CCCC3)cc1 | 710
CN(C)c1ncncc1N1CCC(C(=O)NCc2ccc3c(c2)OCO3)CC1 | 587
COc1cc(C(=O)N2CCC(c3nc4cccnc4n3C)C2)ccc1C (centres undefined) | 683
CN1CCC(NC(=O)c2ncoc2-c2ccccc2)CC1 | 602
CCOC(=O)c1c(S(=O)(=O)N2CCC(C(=O)Nc3ccc(F)c(Cl)c3)CC2)c(C)n(C)c1C | 935
Cc1ccc(-c2nc(CN3CCN(C(=O)NC4CCCC4)CC3)c(C)o2)cc1 | 677
CC(C)NC(=O)Cn1c2ccccc2c2ncn(Cc3nc(-c4ccccc4)no3)c(=O)c21 | 848
CCC(=O)Nc1ccc2c(c1)CN(C(=O)c1cccc(Cl)c1)C(C(=O)N1CCCC1)C2 (centres undefined) | 1070
CSc1ccc(NC(=O)c2ccccc2C(F)(F)F)nn1 | 765
O=C(NC1CCCC1)c1nc(C(=O)N2CCN(c3ccccc3F)CC2)cs1 | 940
Cc1ccc(-c2nnc(-c3nn(C)c4c3CN(S(=O)(=O)c3ccc(Cl)s3)CC4)o2)cc1 | 1060
COc1cc(-c2nc3cc(C)ccn3c2Nc2ccc(C)cc2)ccc1O | 686
CCc1c(C(=O)O)nnn1Cc1ccc(OC)cc1 | 734
COc1cccc(-c2ccc(=O)n(Cc3nc(-c4ccc(F)cc4)no3)n2)c1 | 984
Cc1cc2c(cc(C(=O)NCCc3ccccc3)n2C)s1 | 1040
COc1ccc(-c2cn3c(CC(=O)Nc4cc(C)ccc4C)csc3n2)cc1OC | 746
Cc1ccn2cc(C(=O)NCc3ccccc3Cl)nc2c1 | 675
COc1cccc(NC(=O)N2CCC(CC(=O)N3CCCCC3)CC2)c1 | 718
